Experimental data from patent US10238688B2, “Combination therapies for bladder cancer” (GENEDIA BIOTECH CO. LTD., priority 2015, dated 2019).

Experiments:
Heat Shock pathway = assay: Cignal Finder dual-luciferase pathway reporter, Heat Shock; type: cell-based, human; set-up: key to Relative activity, Heat Shock reporter: firefly/renilla ratio, background (negative control) subtracted; conditions: for Relative activity, Heat Shock reporter: luc/Renluc relative to negative control reporter, single drug at 4 folds vs EH/Ci/Mi combination
Procedure: The pathway analysis was performed with Qiagen's Cignal Finder Pathway Reporter Array systems according to the manufacturer's instructions. The pathway-focused dual-luciferase reporter construct was a mixture of an inducible transcription factor responsive firefly luciferase reporter and constitutively expressing renilla construct. Transcriptional response element (TRE) sequence response elements to each specific transcriptional factor triggered by the different signaling pathways are positioned before the TATA box of firefly luciferase reporter gene. The extent of activity of the reporter reflects the level of activity of the particular signaling pathway. CMV controlled renilla expression vector is co-transfected into the cell as an internal control. Non-inducible reporter construct that lacks the transcriptional factor binding sequence and could not be induced by any transcription factors is used as a negative control. Cells transfected with CMV directed firefly luciferase reporter gene serve as a positive control. Briefly, cells seeded in 6-well plates were transfected with Cignal finder pathway arrays according to the manufacturer's instructions (Qiagen). Then cells were seeded onto 96-well plates. […] After 6 h of incubation with the different drugs at 37° C., cells were lysed and a dual luciferase assay (for firefly and renilla luciferase) was performed using a PromegaGloMax 20/20 illuminometer. The firefly luciferase activities were normalized over the renilla luciferase activities after background activity determined by luciferase activities of negative controls was subtracted. A triple test of cell survival under these drug doses was also performed by MTT assay following 18 h incubation at 37° C. […]

MAPK/ERK pathway = assay: Cignal Finder dual-luciferase pathway reporter, MAPK/ERK; type: cell-based, human; conditions: for Relative activity, MAPK/ERK reporter: luc/Renluc relative to negative control reporter, single drug at 4 folds vs EH/Ci/Mi combination
Procedure: (§1) The pathway analysis was performed with Qiagen's Cignal Finder Pathway Reporter Array systems according to the manufacturer's instructions. The pathway-focused dual-luciferase reporter construct was a mixture of an inducible transcription factor responsive firefly luciferase reporter and constitutively expressing renilla construct. Transcriptional response element (TRE) sequence response elements to each specific transcriptional factor triggered by the different signaling pathways are positioned before the TATA box of firefly luciferase reporter gene. The extent of activity of the reporter reflects the level of activity of the particular signaling pathway. CMV controlled renilla expression vector is co-transfected into the cell as an internal control. Non-inducible reporter construct that lacks the transcriptional factor binding sequence and could not be induced by any transcription factors is used as a negative control. Cells transfected with CMV directed firefly luciferase reporter gene serve as a positive control. Briefly, cells seeded in 6-well plates were transfected with Cignal finder pathway arrays according to the manufacturer's instructions (Qiagen). Then cells were seeded onto 96-well plates. Ci (6000 ng/mL), Mi (800 ng/mL), or EH (1000 ng/mL) and Ci/Mi/EH combination (Ci, 1500 ng/mL, Mi, 800 ng/mL and EH, 1000 ng/m L) were then added to the cells 24 h post-transfection. After 6 h of incubation with the different drugs at 37° C., cells were lysed and a dual luciferase assay (for firefly and renilla luciferase) was performed using a PromegaGloMax 20/20 illuminometer. The firefly luciferase activities were normalized over the renilla luciferase activities after background activity determined by luciferase activities of negative controls was subtracted. A triple test of cell survival under these drug doses was also performed by MTT assay following 18 h incubation at 37° C. […]

ER Stress pathway = assay: Cignal Finder dual-luciferase pathway reporter, ER Stress; type: cell-based, human; conditions: for Relative activity, ER Stress reporter: luc/Renluc relative to negative control reporter, single drug at 4 folds vs EH/Ci/Mi combination
Procedure: as §1

Wnt pathway = assay: Cignal Finder dual-luciferase pathway reporter, Wnt; type: cell-based, human; set-up: key to Relative activity, Wnt reporter: firefly/renilla ratio, background (negative control) subtracted; conditions: for Relative activity, Wnt reporter: luc/Renluc relative to negative control reporter, single drug at 4 folds vs EH/Ci/Mi combination;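 on digitalized pathway activity, Wnt: code −1 means repressed below 0.5-fold of 5637 cells or no-drug control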
Procedure: as §1

SV-HUC-1 = type: cell-based

## COC12C(COC(N)=O)C3=C(C(=O)C(C)=C(N)C3=O)N1CC1NC12 (stereo not shown) [Mi, [6-Amino-8a-methoxy-5-methyl-4,7-dioxo-1,1a,2,4,7,8,8a,8b-octahydroazireno [2′,3′:3,4]pyrrolo[1,2-a]indol-8-yl]methyl carbamate]
Heat Shock pathway; 5637 cells
  digitalized pathway activity, Heat Shock: 0 (null (0) if neither of the above holds)
  relative drug trigged pathway activity over the no-drug level, Heat Shock: 1.38 fold
  Relative activity, Heat Shock reporter: 19.47
Heat Shock pathway; Biu87 cells
  relative drug trigged pathway activity over the no-drug level, Heat Shock: 4.54 fold
  Relative activity, Heat Shock reporter: 8.60
Heat Shock pathway; H-bc cells
  relative drug trigged pathway activity over the no-drug level, Heat Shock: 0.3 fold
  Relative activity, Heat Shock reporter: 1.12
Heat Shock pathway; SV-HUC-1 cells
  digitalized pathway activity, Heat Shock: 0 (null (0) if neither of the above holds)
  relative drug trigged pathway activity over the no-drug level, Heat Shock: 1.01 fold
  Relative activity, Heat Shock reporter: 40.00
Heat Shock pathway; UM-UC-3 cells
  digitalized pathway activity, Heat Shock: 0 (null (0) if neither of the above holds)
  Relative activity, Heat Shock reporter: 4.03
Heat Shock pathway; Um-Uc-3 cells
  relative drug trigged pathway activity over the no-drug level, Heat Shock: 0.93 fold
MAPK/ERK pathway; 5637 cells
  relative drug trigged pathway activity over the no-drug level, MAPK/ERK: 3.73 fold
  Relative activity, MAPK/ERK reporter: 194.59
MAPK/ERK pathway; Biu87 cells
  relative drug trigged pathway activity over the no-drug level, MAPK/ERK: 2.04 fold
  Relative activity, MAPK/ERK reporter: 1001.57
MAPK/ERK pathway; H-bc cells
  relative drug trigged pathway activity over the no-drug level, MAPK/ERK: 0.45 fold
  Relative activity, MAPK/ERK reporter: 59.07
MAPK/ERK pathway; SV-HUC-1 cells
  digitalized pathway activity, MAPK/ERK: 0 (null (0) if neither of the above holds)
  relative drug trigged pathway activity over the no-drug level, MAPK/ERK: 1.42 fold
  Relative activity, MAPK/ERK reporter: 335.00
MAPK/ERK pathway; UM-UC-3 cells
  digitalized pathway activity, MAPK/ERK: 0 (null (0) if neither of the above holds)
  Relative activity, MAPK/ERK reporter: 151.35
MAPK/ERK pathway; Um-Uc-3 cells
  relative drug trigged pathway activity over the no-drug level, MAPK/ERK: 1.06 fold
ER Stress pathway; 5637 cells
  relative drug trigged pathway activity over the no-drug level, ER Stress: 3.2 fold
  Relative activity, ER Stress reporter: 83.09
ER Stress pathway; Biu87 cells
  relative drug trigged pathway activity over the no-drug level, ER Stress: 1.65 fold
  Relative activity, ER Stress reporter: 36.14
ER Stress pathway; H-bc cells
  relative drug trigged pathway activity over the no-drug level, ER Stress: 1.97 fold
  Relative activity, ER Stress reporter: 44.48
ER Stress pathway; SV-HUC-1 cells
  relative drug trigged pathway activity over the no-drug level, ER Stress: 1.51 fold
  Relative activity, ER Stress reporter: 155.20
ER Stress pathway; UM-UC-3 cells
  Relative activity, ER Stress reporter: 109.59
ER Stress pathway; Um-Uc-3 cells
  relative drug trigged pathway activity over the no-drug level, ER Stress: 1.34 fold
Wnt pathway; 5637 cells
  relative drug trigged pathway activity over the no-drug level, Wnt: 1.87 fold
  Relative activity, Wnt reporter: 1.63
Wnt pathway; Biu87 cells
  digitalized pathway activity, Wnt: 0 (null (0) if neither of the above holds)
  relative drug trigged pathway activity over the no-drug level, Wnt: 1.06 fold
  Relative activity, Wnt reporter: 1.77
Wnt pathway; H-bc cells
  digitalized pathway activity, Wnt: 0 (null (0) if neither of the above holds)
  relative drug trigged pathway activity over the no-drug level, Wnt: 0.55 fold
  Relative activity, Wnt reporter: 0.60
Wnt pathway; SV-HUC-1 cells
  digitalized pathway activity, Wnt: 0 (null (0) if neither of the above holds)
  relative drug trigged pathway activity over the no-drug level, Wnt: 1.29 fold
  Relative activity, Wnt reporter: 1.60
Wnt pathway; UM-UC-3 cells
  digitalized pathway activity, Wnt: 0 (null (0) if neither of the above holds)
  Relative activity, Wnt reporter: 4.06
Wnt pathway; Um-Uc-3 cells
  relative drug trigged pathway activity over the no-drug level, Wnt: 1.13 fold
SV-HUC-1; SV-HUC-1, ng/ml: EH 1000, Ci 6000, Mi 800, Pi 160, Pa 640, Ge 20, EH/Ci/Mi regimen
  Single drug 4X Cell Survival (%): 91.17%
SV-HUC-1; SV-HUC-1 cells, Table 4 (A)
  Cell survival 72 hours: 91.17%
SV-HUC-1; SV-HUC-1 cells, Table 4 (B)
  ACS (%): 91.17%
